Experimental data published in US7064120B2, “Tricyclic pyridyl carboxamides and derivatives thereof tocolytic oxytocin receptor antagonists” (Wyeth, priority 2001, dated 2006).

target: T1, human vasopressin V2 receptor subtype (Homo sapiens, UniProt P30518); assay: Vasopressin binding in CHO cell membranes expressing human vasopressin V2 subtype receptors ([3H]arginine vasopressin radioligand binding); settings: 100 nM
T1 construct: host or cells: CHO cells, stably transfected (pZeoSV vector)
Protocol: Vasopressin Binding in Chinese Hamster Ovary Cell Membranes Expressing Human Vasopressin V2 Subtype Receptors
Chinese Hamster Ovary (CHO) cells stably transfected with the human V2 subtype receptors were obtained from M. Thibonnier, Case Western Reserve University School of Medicine, Cleveland, Ohio.
The trypsin is removed by aspiration and the cells dislodged by tapping. Cell Culture medium (e.g. 30 mL for 1:30 split) is immediately added and mixed well to inactivate trypsin. 1 mL of detached cells is added to new culture flasks containing fresh Cell Culture medium (e.g. into 25 mL per T-150 flask), and mixed gently. The cells are incubated at 37° C. in 5% CO2. The medium is changed at 3 to 4 day interval (or as appropriate). […] All steps are done under sterile conditions.
The cells are washed twice gently with Hank's Balanced Salt solution (e.g. use 10 mL per T-150 flask). […] The contents are transferred to centrifuge tubes (50 mL) kept in ice bath. All subsequent steps are done at 4° C. The tubes are centrifuged at 300×g for 15 min (1380 rpm on SORVAL, Model RT6000D, using the rotor for 50 mL tubes). The supernatant is discarded and the cells suspended in homogenizing buffer(10 mM Tris-HCl containing 0.25 M sucrose and 1 mM EDTA, pH 7.4) ensuring that the volume of the buffer is about ten times the volume of the cell pellet. The cells are pooled into a centrifuge tube (50 mL) and homogenized with Polytron at setting 6 for 10 sec. The homogenate is transferred into a Potter-Elvjehm homogenizer and homogenized with 3 strokes. The homogenate is centrifuged at 1500×g for 60 min at 4° C. (3100 rpm using SORVAL, model RT6000D, using the rotor for 50 mL tubes). The pellet is discarded. The supernatant is centrifuged at 100,000×g for 60 min. at 4° C. (Beckman L8-80M ultracentrifuge; spin at 37,500 rpm with rotor type 70 Ti for 50 mL tubes; 38,000 rpm with type 80Ti for 15 mL tubes; or 35,800 rpm with rotor type 45Ti). The supernantant is discarded and the pellet suspended in 3 to 4 mL of Tris buffer (50 mM TRIS-HCl, pH 7.4). The protein content is estimated by the Bradford or Lowry method. The volume of the membrane suspension is adjusted with the membrane buffer (50 mM Tris-HCl containing 0.1% BSA and 0.1 mM PMSF) to give 3.0 mg/mL (or as appropriate) of protein. The membranes are aliquoted and stored at −70° C.
In wells of a 96-well format microtiter plate, is added 90, 110 or 130 μL (to make up a final volume of 200 μL) of assay buffer containing 50 mM of Tris-HCl (pH 7.4), […], 1 mg % aprotinin, 1 mg % leupeptin, 2 mg % 1,10-phenanthroline, 10 mg % trypsin inhibitor, and 0.1 mM PMSF. The inhibitors are added on the day of the experiment. The components are mixed at room temperature, and then kept in ice bath following adjustment of the pH to 7.4. […] For vasopressin and other peptide ligands 20 μL of 50% DMSO is added and the assay buffer volume is adjusted accordingly. To each well is added 50 μL of frozen membrane suspension thawed immediately prior to use and diluted in assay buffer to the required concentration (equivalent to 25 to 50 μg of protein/well as needed). 20 μL of 8 nM [^3H]arginine vasopressin ligand in the assay buffer, prepared just before use is added and incubated at room temperature for 60 min. shaking the plate on a mechanical shaker for the first 15 min. The incubation is stopped by rapid filtration of the plate contents followed by wash with ice-cold buffer (50 mM Tris-HCl, pH 7.4) using a cell harvester (Tomtek and Printed filtermat-B filter paper). The filter paper is thoroughly dried (7–12 min. in a microwave oven) and impregnated with MeltiLex B/H melt-on scintillation wax sheets and the radioactivity counted in a betaplate scintillation counter.
Binding data is either reported as percent inhibition at a certain concentration or if an IC50 was calculated, as a nanomolar concentration.

T1 sequence (P30518 whole entry): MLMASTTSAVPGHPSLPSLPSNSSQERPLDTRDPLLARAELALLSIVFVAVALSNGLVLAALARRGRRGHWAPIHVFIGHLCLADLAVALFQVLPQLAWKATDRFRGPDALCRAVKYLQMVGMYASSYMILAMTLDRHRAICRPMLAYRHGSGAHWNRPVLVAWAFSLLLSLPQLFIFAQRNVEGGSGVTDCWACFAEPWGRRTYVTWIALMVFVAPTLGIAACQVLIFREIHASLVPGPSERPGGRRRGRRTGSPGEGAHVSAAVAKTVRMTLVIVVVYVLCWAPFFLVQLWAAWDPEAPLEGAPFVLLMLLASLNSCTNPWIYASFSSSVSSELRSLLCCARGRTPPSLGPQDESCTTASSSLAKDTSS

SMILES | inhibition at 0.1 µM
COc1ccccc1-c1ccc(C(=O)N2Cc3ccc(C(=O)NCc4ccccn4)n3Cc3ccccc32)cc1C [Example 24, 10-[(2′-Methoxy-2-methyl-[1,1′-biphenyl]-4-yl)carbonyl]-N-(2-pyridinylmethyl)-10,11-dihydro-5H-pyrrolo[2,1-c][1,4]benzodiazepine-3-carboxamide] | 26%
COc1cccc(-c2ccc(C(=O)N3Cc4ccc(C(=O)NCc5ccccn5)n4Cc4ccccc43)cc2C)c1 [Example 25, 10-[(3′-Methoxy-2-methyl-[1,1′-biphenyl]-4-yl)carbonyl]-N-(2-pyridinylmethyl)-10,11-dihydro-5H-pyrrolo[2,1-c][1,4]benzodiazepine-3-carboxamide] | 33%
COc1ccccc1-c1ccc(C(=O)N2Cc3ccc(C(=O)NCc4ccccn4)n3Cc3ccccc32)cc1 [Example 26, 10-[(2′-Methoxy-[1,1′-biphenyl]-4-yl)carbonyl]-N-(2-pyridinylmethyl)-10,11-dihydro-5H-pyrrolo[2,1-c][1,4]benzodiazepine-3-carboxamide] | 23%
Cc1ccccc1-c1ccc(C(=O)N2Cc3ccc(C(=O)NCc4ccccn4)n3Cc3ccccc32)cc1 [Example 27, 10-[(2′-Methyl-[1,1′-biphenyl]-4-yl)carbonyl]-N-(2-pyridinylmethyl)-10,11-dihydro-5H-pyrrolo[2,1-c][1,4]benzodiazepine-3-carboxamide] | 16%
COc1cc(C(=O)N2Cc3ccc(C(=O)NCc4ccccn4)n3Cc3ccccc32)ccc1-c1ccccc1C [Example 28, 10-[(2-Methoxy-2′-methyl-[1,1′-biphenyl]-4-yl)carbonyl]-N-(2-pyridinylmethyl)-10,11-dihydro-5H-pyrrolo[2,1-c][1,4]benzodiazepine-3-carboxamide] | 20%
COc1cc(-c2ccccc2C)c(Cl)cc1C(=O)N1Cc2ccc(C(=O)NCc3ccccn3)n2Cc2ccccc21 [Example 29, 10-[(6-Chloro-3-methoxy-2′-methyl-[1,1′-biphenyl]-4-yl)carbonyl]-N-(2-pyridinylmethyl)-10,11-dihydro-5H-pyrrolo[2,1-c][1,4]benzodiazepine-3-carboxamide] | 12%
COc1cccc(-c2cc(OC)c(C(=O)N3Cc4ccc(C(=O)NCc5ccccn5)n4Cc4ccccc43)cc2Cl)c1 [Example 30, 10-[(6-Chloro-3,3′-dimethoxy-[1,1′-biphenyl]-4-yl)carbonyl]-N-(2-pyridinylmethyl)-10,11-dihydro-5H-pyrrolo[2,1-c][1,4]benzodiazepine-3-carboxamide] | 14%
COc1cc(C(=O)N2Cc3ccc(C(=O)NCc4ccccn4)n3Cc3ccccc32)ccc1-c1cccc2ccccc12 [Example 31, 10-[3-Methoxy-4-(naphthalen-1-yl)benzoyl]-N-(2-pyridinylmethyl)-10,11-dihydro-5H-pyrrolo[2,1-c][1,4]benzodiazepine-3-carboxamide] | 31%
COc1ccccc1-c1ccc(C(=O)N2Cc3ccc(C(=O)NCc4ccccn4)n3Cc3ccccc32)cc1OC [Example 32, 10-[(2,2′-Dimethoxy-[1,1′-biphenyl]-4-yl)carbonyl]-N-(2-pyridinylmethyl)-10,11-dihydro-5H-pyrrolo[2,1-c][1,4]benzodiazepine-3-carboxamide] | 21%
COc1cccc(-c2ccc(C(=O)N3Cc4ccc(C(=O)NCc5ccccn5)n4Cc4ccccc43)cc2OC)c1 [Example 33, 10-[(2,3′-Dimethoxy-[1,1′-biphenyl]-4-yl)carbonyl]-N-(2-pyridinylmethyl)-10,11-dihydro-5H-pyrrolo[2,1-c][1,4]benzodiazepine-3-carboxamide] | 21%
O=C(NCc1ccccn1)c1ccc2n1Cc1ccccc1N(C(=O)c1ccc(-c3cccc4ccccc34)cc1Cl)C2 [Example 34, 10-[2-Chloro-4-(naphthalen-1-yl)benzoyl]-N-(2-pyridinylmethyl)-10,11-dihydro-5H-pyrrolo[2,1-c][1,4]benzodiazepine-3-carboxamide] | 5%
Cc1cc(C(=O)N2Cc3ccc(C(=O)NCc4ccccn4)n3Cc3ccccc32)ccc1-c1ccccc1C(F)(F)F [Example 35, 10-{[2-Methyl-2′-trifluoromethyl-[1,1′-biphenyl]-4-yl]carbonyl}-N-(2-pyridinylmethyl)-10,11-dihydro-5H-pyrrolo[2,1-c][1,4]benzodiazepine-3-carboxamide] | 14%
COc1ccccc1-c1ccc(C(=O)N2Cc3ccc(C(=O)NCc4cccnc4)n3Cc3ccccc32)cc1C [Example 36, 10-[(2′-Methoxy-2-methyl-[1,1′-biphenyl]-4-yl)carbonyl]-N-(3-pyridinylmethyl)-10,11-dihydro-5H-pyrrolo[2,1-c][1,4]benzodiazepine-3-carboxamide] | 24%
Cc1ccccc1-c1ccc(C(=O)N2Cc3ccc(C(=O)NCc4cccnc4)n3Cc3ccccc32)cc1C [Example 37, 10-[(2,2′-Dimethyl-[1,1′-biphenyl]-4-yl)carbonyl]-N-(3-pyridinylmethyl)-10,11-dihydro-5H-pyrrolo[2,1-c][1,4]benzodiazepine-3-carboxamide] | 7%
COc1cccc(-c2ccc(C(=O)N3Cc4ccc(C(=O)NCc5cccnc5)n4Cc4ccccc43)cc2C)c1 [Example 38, 10-[(3′-Methoxy-2-methyl-[1,1′-biphenyl]-4-yl)carbonyl]-N-(3-pyridinylmethyl)-10,11-dihydro-5H-pyrrolo[2,1-c][1,4]benzodiazepine-3-carboxamide] | 21%
COc1ccccc1-c1ccc(C(=O)N2Cc3ccc(C(=O)NCc4cccnc4)n3Cc3ccccc32)cc1 [Example 39, 10-[(2′-Methoxy-[1,1′-biphenyl]-4-yl)carbonyl]-N-(3-pyridinylmethyl)-10,11-dihydro-5H-pyrrolo[2,1-c][1,4]benzodiazepine-3-carboxamide] | 11%
Cc1ccccc1-c1ccc(C(=O)N2Cc3ccc(C(=O)NCc4cccnc4)n3Cc3ccccc32)cc1 [Example 40, 10-[(2′-Methyl-[1,1′-biphenyl]-4-yl)carbonyl]-N-(3-pyridinylmethyl)-10,11-dihydro-5H-pyrrolo[2,1-c][1,4]benzodiazepine-3-carboxamide] | 11%
COc1cc(C(=O)N2Cc3ccc(C(=O)NCc4cccnc4)n3Cc3ccccc32)ccc1-c1ccccc1C [Example 41, 10-[(2-Methoxy-2′-methyl-[1,1′-biphenyl]-4-yl)carbonyl]-N-(3-pyridinylmethyl)-10,11-dihydro-5H-pyrrolo[2,1-c][1,4]benzodiazepine-3-carboxamide] | 16%
COc1cc(-c2ccccc2C)c(Cl)cc1C(=O)N1Cc2ccc(C(=O)NCc3cccnc3)n2Cc2ccccc21 [Example 42, 10-[(6-Chloro-3-methoxy-2′-methyl-[1,1′-biphenyl]-4-yl)carbonyl]-N-(3-pyridinylmethyl)-10,11-dihydro-5H-pyrrolo[2,1-c][1,4]benzodiazepine-3-carboxamide] | 8%
COc1cccc(-c2cc(OC)c(C(=O)N3Cc4ccc(C(=O)NCc5cccnc5)n4Cc4ccccc43)cc2Cl)c1 [Example 43, 10-[(6-Chloro-3,3′-dimethoxy-[1,1′-biphenyl]-4-yl)carbonyl]-N-(3-pyridinylmethyl)-10,11-dihydro-5H-pyrrolo[2,1-c][1,4]benzodiazepine-3-carboxamide] | 7%
